ChEMBL document CHEMBL1201862, “PubChem BioAssay data set” (2004)
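96-well plates; 48 h exposure; 5 concentrations. Endpoints by linear interpolation between flanking doses. Not reached: highest tested concentration assigned. The concentration for 50% growth inhibition is given as GI50.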 The source made the active and inactive calls. No stated cut-off is given here; in the data, active = GI50 up to about 1.1 µM and inactive = higher.

Legend:
Experiment in all cases: growth of human tumour cells (NCI), 48 h
SK-OV-3 = system: SK-OV-3
MOLT-4 = system: MOLT-4
COLO 205 = system: COLO 205
DU-145 = system: DU-145
Malme-3M = system: Malme-3M
SNB-75 = system: SNB-75
SN12C = system: SN12C
NCI-H23 = system: NCI-H23
HL-60 = system: HL-60
T47D = system: T47D
OVCAR-5 = system: OVCAR-5
OVCAR-4 = system: OVCAR-4
Hs-578T = system: Hs-578T
SK-MEL-28 = system: SK-MEL-28
NCI-H522 = system: NCI-H522
RXF 393 = system: RXF 393
BT-549 = system: BT-549

Measured: GI50

O=C(Nc1cccc(C(F)(F)F)c1)O/N=C(/Cl)CCl
inactive: SK-OV-3 > 100 µM | MOLT-4 28.2 µM | COLO 205 67.5 µM | DU-145 > 100 µM | Malme-3M > 100 µM | SNB-75 > 100 µM | SN12C 56 µM | NCI-H23 47.3 µM | HL-60 16.8 µM | T47D 53.5 µM | OVCAR-5 21.8 µM | OVCAR-4 63.2 µM | Hs-578T > 100 µM | SK-MEL-28 41.5 µM

CCOC(=O)c1sc2c(c1OC(=O)c1ccco1)c(=O)n(-c1ccccc1)c(=S)n2-c1ccccc1
inactive: SK-OV-3 > 100 µM | NCI-H522 > 100 µM | MOLT-4 17.2 µM | COLO 205 19.1 µM | DU-145 52.6 µM | Malme-3M 15.8 µM | SNB-75 25.9 µM | SN12C 23.7 µM | RXF 393 22.1 µM | NCI-H23 28.7 µM | HL-60 24.9 µM | T47D 65.6 µM | OVCAR-5 > 100 µM | OVCAR-4 26.8 µM | Hs-578T 27.5 µM | SK-MEL-28 60.5 µM

COc1ccc(-c2c3c(n(C4OC(COC(C)=O)C(OC(C)=O)C(OC(C)=O)C4OC(C)=O)c(=S)c2C#N)CCC3)cc1 (stereo unspecified)
inactive: SK-OV-3 > 100 µM | BT-549 96.4 µM | MOLT-4 > 100 µM | COLO 205 86.9 µM | DU-145 > 100 µM | Malme-3M > 100 µM | SNB-75 > 100 µM | SN12C 71.4 µM | RXF 393 92.3 µM | NCI-H23 > 100 µM | HL-60 > 100 µM | OVCAR-5 > 100 µM | OVCAR-4 > 100 µM | Hs-578T > 100 µM | SK-MEL-28 > 100 µM

COc1ccccc1N1C(=O)/C(=C\c2cccc(Oc3ccccc3)c2)S(=O)(=O)C1c1ccccc1 (stereo unspecified)
inactive: SK-OV-3 > 100 µM | NCI-H522 22.5 µM | BT-549 26.6 µM | MOLT-4 4.92 µM | COLO 205 23.1 µM | DU-145 55.6 µM | Malme-3M 69.3 µM | SN12C > 100 µM | RXF 393 > 100 µM | NCI-H23 19 µM | T47D 22.3 µM | OVCAR-5 89.9 µM | OVCAR-4 9.79 µM | SK-MEL-28 71.1 µM

COc1cccc([C@@]2(O)c3c(ccc(O)c3OC)[C@H]2OC)c1OC
inactive: SK-OV-3 31.8 µM | NCI-H522 16.3 µM | MOLT-4 45.5 µM | Malme-3M 46.2 µM | SNB-75 47.6 µM | SN12C 62.1 µM | NCI-H23 43.9 µM | HL-60 19.3 µM | OVCAR-5 > 100 µM | OVCAR-4 39.7 µM | SK-MEL-28 38.1 µM

Cc1c(O)c(OC2OC(CO)C(O)C(O)C2O)cc2c1C=C[C@@H]1[C@@]2(C)C(=O)C[C@]2(C)[C@@H]([C@@](C)(O)C(=O)CCC(C)(C)O)[C@H](O)C[C@@]12C (stereo partly specified)
inactive: SK-OV-3 15.7 µM | NCI-H522 24.6 µM | BT-549 26.9 µM | MOLT-4 19.7 µM | COLO 205 35.5 µM | DU-145 23.7 µM | Malme-3M 24 µM | SNB-75 25.1 µM | SN12C 19.8 µM | RXF 393 18.6 µM | NCI-H23 17.1 µM | HL-60 41.5 µM | T47D 18.7 µM | OVCAR-5 25.6 µM | OVCAR-4 25.4 µM | SK-MEL-28 21.1 µM

COc1cc2c(c(OC)c1OC)C(=O)CC2N (stereo unspecified)
inactive: SK-OV-3 > 100 µM | NCI-H522 > 100 µM | BT-549 > 100 µM | MOLT-4 > 100 µM | COLO 205 > 100 µM | Malme-3M > 100 µM | SNB-75 > 100 µM | NCI-H23 > 100 µM | HL-60 > 100 µM | OVCAR-5 > 100 µM | OVCAR-4 > 100 µM | Hs-578T > 100 µM | SK-MEL-28 > 100 µM

Cn1c(=O)c2ccccc2[n+]2c(-c3cccc([N+](=O)[O-])c3)csc12
inactive: SK-OV-3 73.6 µM | NCI-H522 38 µM | MOLT-4 24.2 µM | COLO 205 > 100 µM | DU-145 > 100 µM | Malme-3M > 100 µM | SNB-75 12.9 µM | SN12C > 100 µM | RXF 393 43.4 µM | NCI-H23 > 100 µM | HL-60 23 µM | T47D > 100 µM | OVCAR-5 > 100 µM | OVCAR-4 > 100 µM | Hs-578T 18.7 µM | SK-MEL-28 > 100 µM

CC(C)=CCCC1(Sc2ccccc2)C(=O)OCC1C=C(C)C (stereo unspecified)
inactive: SK-OV-3 21.1 µM | NCI-H522 23.2 µM | BT-549 36.3 µM | MOLT-4 7.31 µM | COLO 205 23.2 µM | Malme-3M 17.5 µM | SNB-75 36.6 µM | SN12C 15 µM | RXF 393 17.1 µM | NCI-H23 31.3 µM | T47D 22.4 µM | OVCAR-5 21.3 µM | OVCAR-4 29 µM | SK-MEL-28 47.3 µM

CC1=Nc2c(C#N)ncn2N=C(C)C1
inactive: SK-OV-3 49 µM | BT-549 > 100 µM | MOLT-4 > 100 µM | COLO 205 > 100 µM | DU-145 > 100 µM | SNB-75 > 100 µM | SN12C > 100 µM | RXF 393 > 100 µM | NCI-H23 > 100 µM | HL-60 > 100 µM | OVCAR-5 > 100 µM | OVCAR-4 > 100 µM | Hs-578T > 100 µM | SK-MEL-28 > 100 µM

O=c1[nH]c(=S)c2cc3c(=S)[nH]c(=O)n(CCC(c4ccccc4)(c4ccccc4)c4ccccc4)c3nc2n1CCC(c1ccccc1)(c1ccccc1)c1ccccc1
inactive: SK-OV-3 > 100 µM | NCI-H522 > 100 µM | BT-549 > 100 µM | MOLT-4 15.4 µM | COLO 205 > 100 µM | DU-145 > 100 µM | Malme-3M > 100 µM | SNB-75 > 100 µM | SN12C > 100 µM | NCI-H23 > 100 µM | T47D > 100 µM | OVCAR-5 > 100 µM | OVCAR-4 > 100 µM | SK-MEL-28 > 100 µM

CCOC(=O)/C=C/CCC(C)(C)COC(C)=O
inactive: SK-OV-3 > 10 µM | NCI-H522 > 10 µM | MOLT-4 > 10 µM | COLO 205 > 10 µM | DU-145 > 10 µM | SNB-75 > 10 µM | SN12C > 10 µM | RXF 393 > 10 µM | NCI-H23 > 10 µM | HL-60 > 10 µM | T47D > 10 µM | OVCAR-5 > 10 µM | OVCAR-4 > 10 µM | Hs-578T > 10 µM | SK-MEL-28 > 10 µM

Cc1cn(C2CC(SCCO)C(CO)O2)c(=O)[nH]c1=O (stereo unspecified)
inactive: SK-OV-3 > 100 µM | NCI-H522 > 100 µM | BT-549 > 100 µM | MOLT-4 > 100 µM | COLO 205 > 100 µM | DU-145 > 100 µM | Malme-3M > 100 µM | SNB-75 > 100 µM | SN12C > 100 µM | RXF 393 > 100 µM | NCI-H23 > 100 µM | HL-60 > 100 µM | T47D > 100 µM | OVCAR-5 > 100 µM | OVCAR-4 > 100 µM | SK-MEL-28 > 100 µM

CN1CNc2nc(N)n(C)c(=O)c2C1
inactive: SK-OV-3 > 10 µM | NCI-H522 > 10 µM | BT-549 > 10 µM | MOLT-4 > 10 µM | DU-145 > 10 µM | Malme-3M > 10 µM | SNB-75 7.46 µM | SN12C > 10 µM | RXF 393 > 10 µM | NCI-H23 > 10 µM | HL-60 > 10 µM | OVCAR-5 > 10 µM | OVCAR-4 > 10 µM

FC(F)(F)c1ccc(/N=C/C=C(/Nc2ccc(C(F)(F)F)cc2)c2ccc(Cl)cc2)cc1
inactive: SK-OV-3 16.4 µM | NCI-H522 11.1 µM | MOLT-4 4.06 µM | COLO 205 10.5 µM | DU-145 13.5 µM | Malme-3M 19.4 µM | SNB-75 17.6 µM | SN12C 10.4 µM | RXF 393 10.1 µM | NCI-H23 12.2 µM | HL-60 12.9 µM | T47D 10.3 µM | OVCAR-5 17.9 µM | OVCAR-4 14 µM | Hs-578T 13 µM | SK-MEL-28 15.1 µM

COc1ccc(/C=C2/NC(=S)N=C2Cl)cc1
inactive: SK-OV-3 > 100 µM | NCI-H522 > 100 µM | MOLT-4 > 100 µM | COLO 205 > 100 µM | DU-145 > 100 µM | Malme-3M > 100 µM | SNB-75 > 100 µM | SN12C > 100 µM | RXF 393 > 100 µM | NCI-H23 > 100 µM | HL-60 > 100 µM | T47D > 100 µM | OVCAR-5 21.5 µM | OVCAR-4 > 100 µM | Hs-578T > 100 µM | SK-MEL-28 > 100 µM

CCOC(=O)C1(N)CC1
inactive: NCI-H522 > 100 µM | MOLT-4 > 100 µM | DU-145 > 100 µM | Malme-3M > 100 µM | SNB-75 > 100 µM | SN12C > 100 µM | RXF 393 > 100 µM | NCI-H23 > 100 µM | HL-60 > 100 µM | T47D 56.8 µM | OVCAR-5 > 100 µM | OVCAR-4 > 100 µM | Hs-578T > 100 µM | SK-MEL-28 > 100 µM

CCc1cc2c(oc3c4ccccc4ccc23)c(=O)[nH]1
inactive: SK-OV-3 > 10 µM | NCI-H522 > 10 µM | BT-549 > 10 µM | MOLT-4 > 10 µM | DU-145 > 10 µM | SNB-75 > 10 µM | RXF 393 > 10 µM | NCI-H23 > 10 µM | HL-60 > 10 µM | OVCAR-5 > 10 µM | OVCAR-4 > 10 µM | Hs-578T > 10 µM

COC1O[C@@H]2CCN3C(=O)[C@@H](OC(=O)c4ccc([N+](=O)[O-])cc4)[C@H]1C23 (stereo partly specified)
inactive: SK-OV-3 > 100 µM | NCI-H522 > 100 µM | MOLT-4 > 100 µM | COLO 205 > 100 µM | DU-145 > 100 µM | SNB-75 > 100 µM | SN12C > 100 µM | RXF 393 > 100 µM | NCI-H23 > 100 µM | T47D > 100 µM | OVCAR-5 > 100 µM | Hs-578T > 100 µM
